Several values for one entry are separate records, joined by “and”; a condition that tells them apart may be missing. Identical values can stand only once.
System: bleomycin induced pulmonary fibrosis
Test: Bleomycin induced pulmonary fibrosis in mice, nebulized treatment: body weight, weight of whole lung, survival
Type: in vivo
Conditions: for Predicted (LS) mean diff., % Change Body Weight, Group 2 Bleo/Veh vs. BETi1 group: Baseline, Two Way ANOVA; for Predicted (LS) mean diff., % Change Body Weight, Group 2 Bleo/Veh vs. BETi1 group / Mean Diff., Weight of Whole lung, Group 2 Bleo/Veh vs. BETi1 group: Dunnett's; for Mean Diff., Weight of Whole lung, Group 2 Bleo/Veh vs. BETi1 group: One Way ANOVA; for % change in Body Weight Week 1 Compared to Baseline, mean / % change in Body Weight week 2 Compared to Baseline, mean / % change in Body Weight week 3 Compared to Baseline, Mean: group mean; for % change in Body Weight Week 1 Compared to Baseline / % change in Body Weight week 2 Compared to Baseline / % change in Body Weight week 3 Compared to Baseline: individual animals
Method: Bleomycin, a […], which acts inter alia by induction of DNA strand breaks.
The Bleomycin induced pulmonary fibrosis in a murine model is used to assess anti-fibrotic and/or anti-inflammatory properties of BETi1 formulations at three concentrations. Fifty C57BL/6 male mice aged 6 to 7 weeks and weighing between 25-30 grams are randomized into five treatment groups (10 mice each): (a) bleomycin induced mice treated with BETi1 at three concentrations (0.06 mg/mL, 0.6 mg/mL and 3 mg/mL); (b) bleomycin induced mice treated with vehicle (control for active) and (c) uninduced mice treated with vehicle (sham) (control for disease).
To generate the morphological and functional aspects of PF, 50 uL bleomycin sulfate in saline per mouse is intranasally dosed on Day 0 (other than for group 1 sham receiving saline). The bleomycin IU conversion to enzyme units (U) is approximately 2 U/mg. For delivery of 4 U/kg in 50 μL, a solution of 2 U/ml (for 25 g mouse) is prepared in 0.9% NaCl.
5 ml of BETi1 solutions at 3 doses, or vehicle and bleomycin concomitantly are delivered once daily for 21 days with a nebulizer based aerosol delivery system (eFlow® rapid Nebuliser System) by inhalation for a period which allows the solutions to be nebulized and up to 2 hours per day. A sham group receives vehicle only. Body weights are recorded on days 1, 7, 14, and 21. Mortality and clinical observations are recorded daily.
On day 21, mice are euthanized by cervical dislocation and the whole lung is dissected and weighed. The chest is wet with alcohol and large scissors are used to open the ribcage. The lungs are removed with fine scissors and forceps, rinsed with PBS and patted dry on gauze.
Investigation of the anti-fibrotic properties of BETi1 composition against TGF-β mediated fibrosis was undertaken in a bleomycin induced murine model mimicking IPF in accordance with the protocol set out in Experimental Method R.

Cn1cc(-c2cccc(O)c2Oc2ccccc2)c2cc[nH]c2c1=O [BETi1]
whole lung weight (0.06 mg/mL and 0.6 mg/mL, vs bleomycin and vehicle): slight decrease in lung weight
Probability of Survival (0.06 mg/mL inhaled, until day 20): 50%
Probability of Survival (0.6 mg/mL inhaled, until day 20): 81.3%
Probability of Survival (3 mg/mL inhaled, until day 20): 76.5%
Predicted (LS) mean diff., % Change Body Weight, Group 2 Bleo/Veh vs. BETi1 group (Group 3 Bleo/BETi1 0.06 mg/mL): 0.0875%
Predicted (LS) mean diff., % Change Body Weight, Group 2 Bleo/Veh vs. BETi1 group (Group 4 Bleo/BETi1 0.6 mg/mL): 0.1750%
Predicted (LS) mean diff., % Change Body Weight, Group 2 Bleo/Veh vs. BETi1 group (Group 5 Bleo/BETi1 3 mg/mL): 0.1629%
Mean 2 (group mean), Weight of Whole lung (Group 3 Bleo/BETi1 0.06 mg/mL): 0.2695
Weight of Whole lung, Mean (Group 3 Bleo/BETi1 0.06 mg/mL): 0.27 grams
Weight of Whole lung, individual animals (Group 3 Bleo/BETi1 0.06 mg/mL): 0.32 grams and 0.28 grams and 0.25 grams and 0.27 grams (3×) and 0.30 grams and 0.19 grams
Probability of Survival (Group 3 Bleo/BETi1 0.06 mg/mL, Day Elapsed 0): 100%
Probability of Survival (Group 3 Bleo/BETi1 0.06 mg/mL, Day Elapsed 8): 93.75%
Probability of Survival (Group 3 Bleo/BETi1 0.06 mg/mL, Day Elapsed 9): 81.25%
Probability of Survival (Group 3 Bleo/BETi1 0.06 mg/mL, Day Elapsed 10): 75%
Probability of Survival (Group 3 Bleo/BETi1 0.06 mg/mL, Day Elapsed 12): 68.75%
Probability of Survival (Group 3 Bleo/BETi1 0.06 mg/mL, Day Elapsed 14): 62.5%
Probability of Survival (Group 3 Bleo/BETi1 0.06 mg/mL, Day Elapsed 18): 56.25%
Probability of Survival (Group 3 Bleo/BETi1 0.06 mg/mL, Day Elapsed 19): 50%
Probability of Survival (Group 3 Bleo/BETi1 0.06 mg/mL, Day Elapsed 20): 50%
Mean Diff., Weight of Whole lung, Group 2 Bleo/Veh vs. BETi1 group (Group 3 Bleo/BETi1 0.06 mg/mL): 0.01712
% change in Body Weight Week 1 Compared to Baseline, mean (Group 3 Bleo/BETi1 0.06 mg/mL): −22.10%
% change in Body Weight week 2 Compared to Baseline, mean (Group 3 Bleo/BETi1 0.06 mg/mL): −19.98%
% change in Body Weight week 3 Compared to Baseline, Mean (Group 3 Bleo/BETi1 0.06 mg/mL): −8.83%
% change in Body Weight Week 1 Compared to Baseline (Group 3 Bleo/BETi1 0.06 mg/mL): −37.04% and −20.00% and −39.32% and −11.86% and −37.37% and −3.83% and −26.78% and −31.75% and −37.30% and −38.92% and −35.61% and −25.13% and −14.61% and −18.53% and −13.95% and −12.29%
% change in Body Weight week 2 Compared to Baseline (Group 3 Bleo/BETi1 0.06 mg/mL): −39.35% and −15.35% and −47.44% and −1.27% and −1.28% and −37.16% and −39.04% and −8.22% and −19.83% and −3.26% and −7.63%
% change in Body Weight week 3 Compared to Baseline (Group 3 Bleo/BETi1 0.06 mg/mL): −37.04% and −9.77% and −0.85% and −2.13% and −5.02% and −14.22% and 0.93% and −2.54%
Mean 2 (group mean), Weight of Whole lung (Group 4 Bleo/BETi1 0.6 mg/mL): 0.2681
Weight of Whole lung, Mean (Group 4 Bleo/BETi1 0.6 mg/mL): 0.27 grams
Weight of Whole lung, individual animals (Group 4 Bleo/BETi1 0.6 mg/mL): 0.13 grams and 0.31 grams and 0.29 grams and 0.32 grams and 0.37 grams and 0.27 grams and 0.20 grams (2×) and 0.33 grams and 0.34 grams (2×) and 0.18 grams and 0.21 grams
Probability of Survival (Group 4 Bleo/BETi1 0.6 mg/mL, Day Elapsed 0): 100%
Probability of Survival (Group 4 Bleo/BETi1 0.6 mg/mL, Day Elapsed 10): 87.5%
Probability of Survival (Group 4 Bleo/BETi1 0.6 mg/mL, Day Elapsed 19): 81.3%
Probability of Survival (Group 4 Bleo/BETi1 0.6 mg/mL, Day Elapsed 20): 81.3%
Mean Diff., Weight of Whole lung, Group 2 Bleo/Veh vs. BETi1 group (Group 4 Bleo/BETi1 0.6 mg/mL): 0.01849
% change in Body Weight Week 1 Compared to Baseline, mean (Group 4 Bleo/BETi1 0.6 mg/mL): −21.76%
% change in Body Weight week 2 Compared to Baseline, mean (Group 4 Bleo/BETi1 0.6 mg/mL): −17.12%
% change in Body Weight week 3 Compared to Baseline, Mean (Group 4 Bleo/BETi1 0.6 mg/mL): −13.58%
% change in Body Weight Week 1 Compared to Baseline (Group 4 Bleo/BETi1 0.6 mg/mL): −10.00% and −30.77% and −22.17% and −31.64% and −20.93% and −27.01% and −24.89% and −31.19% and −5.26% and −14.75% and −23.22% and −25.78% and −4.72% and −10.36% and −31.41% and −8.41%
% change in Body Weight week 2 Compared to Baseline (Group 4 Bleo/BETi1 0.6 mg/mL): −8.00% and −33.52% and −16.04% and −27.44% and −32.70% and −21.78% and 0.96% and −18.89% and −16.11% and −23.11% and −0.47% and −0.90% and −39.27% and −2.34%
% change in Body Weight week 3 Compared to Baseline (Group 4 Bleo/BETi1 0.6 mg/mL): −7.50% and −34.62% and −7.55% and −27.91% and −34.12% and −12.89% and 2.39% and −6.45% and −14.69% and −19.56% and −3.30% and −9.91% and −0.47%
Mean 2 (group mean), Weight of Whole lung (Group 5 Bleo/BETi1 3 mg/mL): 0.2847
Weight of Whole lung, Mean (Group 5 Bleo/BETi1 3 mg/mL): 0.28 grams
Weight of Whole lung, individual animals (Group 5 Bleo/BETi1 3 mg/mL): 0.31 grams (2×) and 0.33 grams (2×) and 0.30 grams (2×) and 0.23 grams and 0.27 grams and 0.29 grams and 0.34 grams and 0.28 grams and 0.21 grams and 0.22 grams
Probability of Survival (Group 5 Bleo/BETi1 3 mg/mL, Day Elapsed 0): 100%
Probability of Survival (Group 5 Bleo/BETi1 3 mg/mL, Day Elapsed 12): 88.24%
Probability of Survival (Group 5 Bleo/BETi1 3 mg/mL, Day Elapsed 19): 76.5%

Reference: patent publication US20250339409A1, “USES OF PAN BET INHIBITORS” (VYNE THERAPEUTICS INC., priority 2021, published 2025)
